The values that follow come from US8119806B2, “Cicletanine derivatives” (Merck Sharp & Dohme Corp., priority 2008, dated 2012).

pEC50: −log10 of the molar value. Read-outs that look alike come from different tables or passages of the source. Where only a bound is given, the exact number is not on record here.

This assay relates to isolated rabbit thoracic aorta preparations. Kind of assay: Vessel relaxation in isolated rabbit thoracic aorta rings precontracted with noradrenaline. The note with it: Oryctolagus cuniculus.
The mark [1] stands for this setting: read-out: Vessel Relaxation Data ED50.
[2] abbreviates: read-out: vessel relaxation EC50.

`Cc1ncc2c(c1O)CO[C@H]2c1ccc(Cl)cc1`: under setting [1], the pEC50 is 4.45.

For the compound `Cc1ncc2c(c1OC(=O)OC[C@H]1C[C@H](O[N+](=O)[O-])[C@H](O[N+](=O)[O-])C1)COC2c1ccc(Cl)cc1` (stereo partly drawn) [Example 39], the pEC50 under setting [2] is more than 4.30. In the case of `CO[C@H]1CC(C(=O)Oc2c(C)ncc3c2CO[C@H]3c2ccc(Cl)cc2)C[C@@H]1O[N+](=O)[O-]` (stereo partly drawn), under setting [1], the pEC50 was 4.73. For the compound `Cc1ncc2c(c1OC(=O)C1C[C@H](O[N+](=O)[O-])[C@H](O[N+](=O)[O-])C1)CO[C@H]2c1ccc(Cl)cc1` (stereo partly drawn), the pEC50 under setting [1] was 5.20. As for `CO[C@H]1C[C@@H](C(=O)Oc2c(C)ncc3c2CO[C@H]3c2ccc(Cl)cc2)C[C@@H]1O[N+](=O)[O-]` [Example 60, (3S)-3-(4-chlorophenyl)-6-methyl-1,3-dihydrofuro[3,4-c]pyridin-7-yl(1R,3S,4S)-3-methoxy-4-(nitrooxy)cyclopentanecarboxylate], the pEC50 under setting [2] is more than 4.30. For `Cc1ncc2c(c1OC(=O)OC[C@@H]1C[C@H](O[N+](=O)[O-])[C@H](O[N+](=O)[O-])C1)COC2c1ccc(Cl)cc1` (stereo partly drawn) [Example 40], under setting [2], the pEC50 was more than 4.30. With `CO[C@H]1C[C@H](C(=O)O)C[C@@H]1O[N+](=O)[O-]`, the pEC50 under setting [1] was 3.90. Regarding `Cc1ncc2c(c1OC(=O)O[C@H]1CO[C@H]3[C@@H]1OC[C@H]3O[N+](=O)[O-])COC2c1ccc(Cl)cc1` (stereo partly drawn) [Example 45], the pEC50 under setting [2] is more than 4.30.

Regarding `CC(=O)N[C@H](C(=O)O)C(C)(C)SN=O` (racemic) [SNAP, S-nitroso-N-acetylpenicillamine, reference compound], under setting [1], the pEC50 is 6.63.
